Measured values taken from patent US20070111251A1, “Chemical address tags” (priority 2003, published 2007).

Experiments:
[1] = pyridine derivatives; cited from earlier work
[2] = tested on: HeLa cells; assay: Kinetic imaging of NBD-triazine probe uptake and sequestration, fitted to nested two-compartment transport model; assay type: cell-based; details: median over optimal solutions within 5% of the best fit
Method in brief: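 HeLa cells (3000/well, plated 24 h earlier) imaged live with 10 μM NBD probe in RPMI containing 1.0 mM bromophenol blue, about 2 h for influx, then washed and imaged 6 h for efflux, every ~7 min. Perinuclear pixel-intensity CV fitted to a nested two-compartment transport model by simulated annealing.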

median Pap(cyto) (apparent partition coefficient between extracellular medium and cytosol) [2]	median Pap(ves) (apparent partition coefficient between cytosol and intracellular vesicles, k(ves)in/k(ves)out) [2]	SMILES	pKa [1]
15351.10	100.42	COc1cccc(CNc2nc(NCCCCCCNc3ccc([N+](=O)[O-])c4nonc34)nc(NCCc3ccccn3)n2)c1 [Compound B9]	~6.0
0.06	99497.01	COc1ccc(CCNc2nc(NCCCCCCNc3ccc([N+](=O)[O-])c4nonc34)nc(NCCc3ccccn3)n2)cc1 [Compound D9]	~6.0
2989.27	2940.20	O=[N+]([O-])c1ccc(NCCCCCCNc2nc(NCCc3ccccn3)nc(NCCC(c3ccccc3)c3ccccc3)n2)c2nonc12 [Compound F9]	~6.0
